Assay results published in PubChem BioAssay (NCI).
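The concentration for 50% growth inhibition is given as GI50. Definition used: TGI = concentration required for complete inhibition of growth.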

Columns and labels:
Experiment in all cases: inhibition of tumour cell growth, NCI panel, 384-well format
786-0 renal = system: 786-0 renal
A498 renal = system: A498 renal
A549 NSCLC = system: A549 NSCLC
BT-549 breast = system: BT-549 breast
CCRF-CEM leukemia = system: CCRF-CEM leukemia
COLO 205 colon = system: COLO 205 colon
DU-145 prostate = system: DU-145 prostate
EKVX NSCLC = system: EKVX NSCLC
HCT-116 colon = system: HCT-116 colon
HL-60(TB) leukemia = system: HL-60(TB) leukemia
HOP-62 NSCLC = system: HOP-62 NSCLC
HOP-92 NSCLC = system: HOP-92 NSCLC
HS 578T breast = system: HS 578T breast
IGROV1 ovarian = system: IGROV1 ovarian
K-562 leukemia = system: K-562 leukemia
LOX IMVI melanoma = system: LOX IMVI melanoma
M14 melanoma = system: M14 melanoma
MALME-3M melanoma = system: MALME-3M melanoma
MDA-MB-231 breast = system: MDA-MB-231 breast
MDA-MB-468 breast = system: MDA-MB-468 breast
MOLT-4 leukemia = system: MOLT-4 leukemia
NCI-H226 lung = system: NCI-H226 lung
NCI-H23 lung = system: NCI-H23 lung
NCI-H322M lung = system: NCI-H322M lung
NCI/ADR-RES ovarian = system: NCI/ADR-RES ovarian
OVCAR-3 ovarian = system: OVCAR-3 ovarian
OVCAR-4 ovarian = system: OVCAR-4 ovarian
OVCAR-5 ovarian = system: OVCAR-5 ovarian
OVCAR-8 ovarian = system: OVCAR-8 ovarian
PC-3 prostate = system: PC-3 prostate
RXF 393 renal = system: RXF 393 renal
SF-268 CNS = system: SF-268 CNS
SF-295 CNS = system: SF-295 CNS
SK-MEL-2 melanoma = system: SK-MEL-2 melanoma
SK-MEL-28 melanoma = system: SK-MEL-28 melanoma
SK-MEL-5 melanoma = system: SK-MEL-5 melanoma
SK-OV-3 ovarian = system: SK-OV-3 ovarian
SN12C renal = system: SN12C renal
SNB-19 CNS = system: SNB-19 CNS
SNB-75 CNS = system: SNB-75 CNS
SR leukemia = system: SR leukemia
SW-620 colon = system: SW-620 colon
T-47D breast = system: T-47D breast
TK-10 renal = system: TK-10 renal
U251 glioblastoma = system: U251 glioblastoma
UACC-257 melanoma = system: UACC-257 melanoma
UACC-62 melanoma = system: UACC-62 melanoma

O=C(Cc1ccccc1)Nc1nnc(CCSCCc2nnc(NC(=O)Cc3ccccc3)s2)s1
GI50 ([…]-0 renal): 2.27 µM | TGI (786-0 renal): 8.96 µM | GI50 (A498 renal): 3.13 µM | TGI (A498 renal): 11.9 µM | GI50 (A549 NSCLC): 1.06 µM | TGI (A549 NSCLC): 5.54 µM | GI50 (BT-549 breast): 9.85 µM | TGI (BT-549 breast): 30.5 µM | GI50 (CCRF-CEM leukemia): 11.6 µM | TGI (CCRF-CEM leukemia): > 100 µM | GI50 (COLO 205 colon): > 100 µM | TGI (COLO 205 colon): > 100 µM | GI50 (DU-145 prostate): 14 µM | TGI (DU-145 prostate): > 100 µM | GI50 (EKVX NSCLC): 17.2 µM | TGI (EKVX NSCLC): > 92.9 µM | GI50 (HCT-116 colon): > 72.6 µM | TGI (HCT-116 colon): > 100 µM | GI50 (HL-60(TB) leukemia): 28.3 µM | TGI (HL-60(TB) leukemia): > 100 µM | GI50 (HOP-62 NSCLC): 2.92 µM | TGI (HOP-62 NSCLC): 11.9 µM | GI50 (HOP-92 NSCLC): 3.05 µM | TGI (HOP-92 NSCLC): 14.8 µM | GI50 (HS 578T breast): 0.9 µM | TGI (HS 578T breast): 3.37 µM | GI50 (IGROV1 ovarian): 29.1 µM | TGI (IGROV1 ovarian): > 94 µM | GI50 (K-562 leukemia): 10.1 µM | TGI (K-562 leukemia): > 100 µM | GI50 (LOX IMVI melanoma): 3.99 µM | TGI (LOX IMVI melanoma): 23.1 µM | GI50 (M14 melanoma): > 43.4 µM | TGI (M14 melanoma): > 88.8 µM | GI50 (MALME-3M melanoma): 16.1 µM | TGI (MALME-3M melanoma): 45.5 µM | GI50 (MDA-MB-231 breast): 3.07 µM | TGI (MDA-MB-231 breast): 28.9 µM | GI50 (MDA-MB-468 breast): 29.7 µM | TGI (MDA-MB-468 breast): > 83.2 µM | GI50 (MOLT-4 leukemia): > 39.2 µM | TGI (MOLT-4 leukemia): > 100 µM | GI50 (NCI-H226 lung): 7.56 µM | TGI (NCI-H226 lung): 31.3 µM | GI50 (NCI-H23 lung): 16.1 µM | TGI (NCI-H23 lung): 39.7 µM | GI50 (NCI-H322M lung): 0.393 µM | TGI (NCI-H322M lung): 2.21 µM | GI50 (NCI/ADR-RES ovarian): > 100 µM | TGI (NCI/ADR-RES ovarian): > 100 µM | GI50 (OVCAR-3 ovarian): 7.24 µM | TGI (OVCAR-3 ovarian): > 60.5 µM | GI50 (OVCAR-4 ovarian): 13.2 µM | TGI (OVCAR-4 ovarian): 40.5 µM | GI50 (OVCAR-5 ovarian): 16.7 µM | TGI (OVCAR-5 ovarian): > 100 µM | GI50 (OVCAR-8 ovarian): 4.38 µM | TGI (OVCAR-8 ovarian): 17.9 µM | GI50 (PC-3 prostate): 13.4 µM | TGI (PC-3 prostate): 35 µM | GI50 (RXF 393 renal): 1.42 µM | TGI (RXF 393 renal): 4.88 µM | GI50 (SF-268 CNS): 2.16 µM | TGI (SF-268 CNS): 9.86 µM | GI50 (SF-295 CNS): 9.57 µM | TGI (SF-295 CNS): 26.4 µM | GI50 (SK-MEL-2 melanoma): 3.07 µM | TGI (SK-MEL-2 melanoma): 10.7 µM | GI50 (SK-MEL-28 melanoma): 21.7 µM | TGI (SK-MEL-28 melanoma): > 61.2 µM | GI50 (SK-MEL-5 melanoma): 10.4 µM | TGI (SK-MEL-5 melanoma): 52.5 µM | GI50 (SK-OV-3 ovarian): 15.5 µM | TGI (SK-OV-3 ovarian): 40.4 µM | GI50 (SN12C renal): 3.29 µM | TGI (SN12C renal): 19.5 µM | GI50 (SNB-19 CNS): 19.4 µM | TGI (SNB-19 CNS): 48 µM | GI50 (SNB-75 CNS): 8.91 µM | TGI (SNB-75 CNS): 27.2 µM | GI50 (SR leukemia): 0.544 µM | TGI (SR leukemia): > 100 µM | GI50 (SW-620 colon): > 60.9 µM | TGI (SW-620 colon): > 100 µM | GI50 (T-47D breast): 27.3 µM | TGI (T-47D breast): > 88.3 µM | GI50 (TK-10 renal): 18 µM | TGI (TK-10 renal): 62.2 µM | GI50 (U251 glioblastoma): 3.13 µM | TGI (U251 glioblastoma): 21.4 µM | GI50 (UACC-257 melanoma): 13.5 µM | TGI (UACC-257 melanoma): > 76.6 µM | GI50 (UACC-62 melanoma): 8.39 µM | TGI (UACC-62 melanoma): 31.1 µM
